In US4430355A, “Condensed isothiazolo-3 (2H)-one-1-1-dioxides” (priority 1977, dated 1984):
Structures can show the parent of a compound that is named as a salt.

Key:
[1] = Determination of the threshold concentration (taste testers, Schutz and Pilgrim method); parameters: key: mean of 5 testers; 0 = not sweet, 3 = very sweet
Method: From novel compounds A, B, C, D, E and F and from known comparison compounds U, V and W aqueous solutions in concentrations of 1:12500, 1:25000, 1:50000, 1:100000 and 1:200000 were prepared and evaluated by each of 5 taste testers according to the following criteria: Very sweet (=3 points); medium sweet (=2 points), slightly sweet (=1 point) and not sweet (=0 point). The tests were carried out according to the method of H. G. Schutz and F. J. Pilgrim [Food Research 22, 206 (1957)]. The dilution with perceptible sweetness was defined as the concentration at which the average value reached the evaluation points 1.0 or higher.

[2] = Evaluation of taste quality
Source text: They often have a side-taste or after-taste. Novel compounds A to F are, however, characterized by a very pure sweet taste.

mice [3] = experiment: Rotating cylinder test, muscle-relaxing and coordination inhibitory effects; format: in vivo; conditions: 200 mgm/kg p.o.
mice [4] = experiment: Spontaneous motility in light beam cages; format: in vivo; conditions: same dosage (200 mgm/kg p.o.)
rats = experiment: Spontaneous motility in electric activity cages (Fuhrer and Feldhofer); format: in vivo
Method: (§1) Also, the test of the motility of rats in electric activity cages according to Fuhrer and Feldhofer [Arzneim. Forsch. […] Moreover, no effect regarding the body temperatures of the rats at a dosage of 200 mg/kg p.o. could be observed. The measurements were made after 1, 2, 3 and 4 hours after oral administration of the substance; one control group only received the distilled water solvent.

Body temperature = format: in vivo; conditions: rats, 200 mg/kg p.o.; 1, 2, 3 and 4 hours after administration
Method: as §1

mice [5] = experiment: Hexobarbital narcosis, loss of the righting reflex; format: in vivo; conditions: 25 mgm/kg p.o.
Source text: Compound C has no effect on the hexobarbital narcosis in mice.

mice [6] = experiment: Tail clamp test according to Haffner, defensive reactions to pain stimuli; format: in vivo; conditions: 200 mgm/kg p.o.
mice [7] = experiment: Electroshock convulsion; format: in vivo; conditions: 200 mgm/kg p.o.
male mice = experiment: Hypothermia caused by reserpine; format: in vivo
Source text: It also has no influence on the hypothermia of male mice, which is caused by reserpine.

[8] = system: intestinal tract of the rat; experiment: Ulcerations in the intestinal tract; format: in vivo; conditions: 3 times 200 mgm/kg p.o.
eye of the rabbit = experiment: Local compatibility in the eye; format: in vivo; conditions: 1% solution
[9] = system: isolated, beating atrium of the rat heart; experiment: Isolated, beating atrium
Method: (§2) The compound C had no effect on the contractility and the frequency of the isolated, beating atrium of the rat heart. When compound C was given in doses of 1.0 and 3.0 and 10.0 mg/kg i.v. no effect on blood pressure, heart rate and respiration of anesthetized cats could be observed. At concentrations of 1×10^-4 mol/liter compound C had no effect on the ADP-induced, thrombine-induced and collagen-induced aggregation of the thrombozytes in the platelet-rich plasma of healthy test persons.

anesthetized cats = experiment: Blood pressure, heart rate and respiration of anesthetized cats; format: in vivo; conditions: anesthetized cats, 1.0, 3.0 and 10.0 mg/kg i.v.
Method: as §2

[10] = system: thrombozytes in the platelet-rich plasma of healthy test persons; experiment: Thrombozyte aggregation in platelet-rich plasma; format: cell-based; conditions: 1×10^-4 mol/liter
Method: as §2

water-loaded male rats = experiment: Secretion of Na+, K+, Cl- and liquid in water-loaded rats; format: in vivo; conditions: 200 mgm/kg p.o.
bacteria = experiment: Bacteriostatic effect
fungi = experiment: Fungistatic effect
rat = experiment: Orienting acute toxicity, oral, rat; format: in vivo; conditions: 5000 mgm/kg oral, 6 animals
Method: The acute toxicity was determined after oral administration to male and female mice and to male and female rats. The substances were given in an aqueous solution or as a suspension in tylose.

[11] = system: Salmonella typhimurium TA 98, TA 100, TA 1535, TA 1537, TA 1538; experiment: AMES-system, test for mutagenic effects, Salmonella typhimurium; format: cell-based
Method: Compounds C and D were tested in the AMES-system [Mutation Research 31, 347-364 (1975)] with regard to their mutagenic properties. In order to show the whole spectrum of induced molecular DNA-damages (base substitutions, frame-shift mutations, deletions) the auxotrophic bacterial strains Salmonella typhimurium TA 98, TA 100 and Escherichia coli WP 2 (P) were used as genetic indicators. The strains Salmonella typhimurium TA 1535, TA 1537 and TA 1538 were additionally used in the test of compound C.
(§3) The test for all microorganisms were carried out in a way such that the influence of a microsomal enzyme system, together with the corresponding co-factors, could be tested with regard to the test substance, and to determine the differences in enzyme induction. The tests were performed without an activating system and in the presence of an activating system. For the in vitro-activation, S-9 supernatants (fraction of the endoplasmatic reticulum) of normal, i.e. not pre-treated rats and of Aroclor 1254 (500 mg/kg) induced rats were used. From the S-9 induced fraction, 3 different concentration levels were tested.
(§4) The substance concentrations of compound C were 0.1 and 0.5 mgm/plate and the concentrations of compound D were 5, 10, 15 and 20 mg/plate.

[12] = system: Escherichia coli WP 2 (P); experiment: AMES-system, test for mutagenic effects, Escherichia coli; format: cell-based
Method: In order to show the whole spectrum of induced molecular DNA-damages (base substitutions, frame-shift mutations, deletions) the auxotrophic bacterial strains Salmonella typhimurium TA 98, TA 100 and Escherichia coli WP 2 (P) were used as genetic indicators.
as §3, with “For the in vitro-activation, S-9 supernatants (fraction of the endoplasmatic reticulum) of normal, i.e. not pre-treated rats and of Aroclor 1254 (500 mg/kg) induced rats were used.” left out

microorganism growth = experiment: Series dilution essay, inhibition of the microorganism growth; format: cell-based; conditions: highest dosages (C 0.5 mgm/plate, D 20 mg/plate)
Method: as §4

[13] = Determination of the relative sweetening power in comparison to saccharose (taste testers, 3% saccharose solution); conditions: compared with 3% aqueous solution of saccharose
Source text: The relative sweetening power (often also defined as degree of sweetness) of sweetening agents in comparison to saccharose (cane sugar) varies with the concentrations within wide limits. Thus, in the usual concentrations (corresponding to a 2-10% solution of saccharose) the relative sweetening power of saccharin varies from 200 to 700. Therefore, for the determination of the relative sweetening power of the above-mentioned compounds a 3% aqueous solution of saccharose was always used for comparison.
The further determination of the relative sweetening power was continued according to the methods of R. Pauli [Chemiker Zeitung 44, 744 (1920)] and T. Paul [Chemiker-Zeitung 45 38 (1921)]. Each test series was tested by 4 taste testers.

[14] = usual concentrations, corresponding to a 2-10% solution of saccharose; cited from earlier work
[15] = heretofore known sweetening agents; cited from earlier work
[16] = Batzinger, On and Bueding, Science 198, 944 (1977); cited from earlier work

Structure (SMILES): Cc1cc2c(s1)S(=O)(=O)NC2=O [Compound C, 5-Methyl-thieno[3,2-d]isothiazole-3-(2H)-one-1,1-dioxide sodium salt]
- Average Value of Evaluation Points ([1]; concentration 1:25000, sodium salt): 2.0
- Average Value of Evaluation Points ([1]; concentration 1:50000, sodium salt): 1.2
- taste quality compared with saccharose (cane sugar) [2]: achieve the taste quality of saccharose
- ability to hold themselves in rotating cylinders (mice [3]): able to hold themselves in rotating cylinders
- muscle-relaxing and coordination inhibitory effects (mice [3]): no muscle-relaxing and coordination inhibitory effects
- influence on spontaneous motility (mice [4]): does not influence the spontaneous motility of mice
- effect on spontaneous motility (rats): did not show any effect on the spontaneous motility
- effect on body temperature (Body temperature): no effect
- duration of hexobarbital narcosis (loss of the righting reflex) (mice [5]): not influenced
- influence on the defensive reactions to pain stimuli (mice [6]): did not show any influence
- influence on electroshock convulsion (mice [7]): does not influence
- influence on reserpine hypothermia (male mice): no influence
- ulcerations in the intestinal tract [8]: does not cause any ulcerations
- local anesthesia (eye of the rabbit): no local anesthesia
- mydriasis (eye of the rabbit): no mydriasis
- redness of the conjunctiva (eye of the rabbit): no redness of the conjunctiva
- effect on contractility [9]: no effect
- effect on frequency [9]: no effect
- effect on blood pressure (anesthetized cats): no effect
- effect on heart rate (anesthetized cats): no effect
- effect on respiration (anesthetized cats): no effect
- effect on ADP-induced aggregation of thrombozytes [10]: no effect
- effect on collagen-induced aggregation of thrombozytes [10]: no effect
- effect on thrombine-induced aggregation of thrombozytes [10]: no effect
- secretion of Cl^- (water-loaded male rats): no effect
- secretion of K^+ (water-loaded male rats): no effect
- secretion of Na^+ (water-loaded male rats): no effect
- secretion of liquid (water-loaded male rats): no effect
- bacteriostatic effect (bacteria): neither bacteriostatically nor fungistatically effective
- fungistatic effect (fungi): neither bacteriostatically nor fungistatically effective
- Animals which died within the observation time, 1 day (rat): 0 animals
- Animals which died within the observation time, 7 days (rat): 0 animals
- release of base substitutions ([11]; S. typhimurium TA 1535, TA 100): do not release base substitutions
- release of frame-shift mutations ([11]; S. typhimurium TA 1537, TA 1538, TA 98): do not release
- increase in the spontaneous mutation rate ([11]; Salmonella strains, C 0.1 and 0.5 mgm/plate, D 5-20 mg/plate, with and without activating system): did not lead to an increase
- colonies counted on the substance plates ([11]; all test strains): within the spontaneous range
- effect of the enzyme induction and of the activating fraction on the reverse mutation rate ([11]; all tested strains, S-9 of normal and Aroclor 1254 induced rats): not detectable
- mutagenic potential ([11]; conclusion over all tested strains): do not indicate a mutagenic potential
- release of base substitutions ([12]; E. coli WP2 (P)): do not release base substitutions
- increase in the spontaneous mutation rate ([12]; E. coli WP 2 (P), C 0.1 and 0.5 mgm/plate, D 5-20 mg/plate, with and without activating system): did not lead to an increase
- inhibition of the microorganism growth (microorganism growth): did not show any inhibition

Structure (SMILES): O=C1NS(=O)(=O)c2ccccc21 [V, Saccharin, reference compound]
- Average Value of Evaluation Points ([1]; concentration 1:25000): 2.4
- Average Value of Evaluation Points ([1]; concentration 1:50000): 1.2
- Average Value of Evaluation Points ([1]; concentration 1:100000): 0.4
- Relative Sweetening Power (Saccharose = 1) [13]: 550
- relative sweetening power of saccharin [14]: 200 to 700
- side-taste or after-taste [15]: unpleasant after-taste
- taste quality compared with saccharose [15]: do not have the taste quality of saccharose
- mutagenic effect [16]: shows a mutagenic effect
